Measured values reported in US20080194701A1, “Bifunctional Enzyme with Y-Glutamylcysteine Synthetase and Glutathione Synthetase Activity and Uses Thereof” (priority 2004, published 2008).

Tests used:
Human γ-GCS = target: T1, Human γ-GCS (Homo sapiens, UniProt P48506); details: cited from earlier work
T1 sequence (P48506 1-637): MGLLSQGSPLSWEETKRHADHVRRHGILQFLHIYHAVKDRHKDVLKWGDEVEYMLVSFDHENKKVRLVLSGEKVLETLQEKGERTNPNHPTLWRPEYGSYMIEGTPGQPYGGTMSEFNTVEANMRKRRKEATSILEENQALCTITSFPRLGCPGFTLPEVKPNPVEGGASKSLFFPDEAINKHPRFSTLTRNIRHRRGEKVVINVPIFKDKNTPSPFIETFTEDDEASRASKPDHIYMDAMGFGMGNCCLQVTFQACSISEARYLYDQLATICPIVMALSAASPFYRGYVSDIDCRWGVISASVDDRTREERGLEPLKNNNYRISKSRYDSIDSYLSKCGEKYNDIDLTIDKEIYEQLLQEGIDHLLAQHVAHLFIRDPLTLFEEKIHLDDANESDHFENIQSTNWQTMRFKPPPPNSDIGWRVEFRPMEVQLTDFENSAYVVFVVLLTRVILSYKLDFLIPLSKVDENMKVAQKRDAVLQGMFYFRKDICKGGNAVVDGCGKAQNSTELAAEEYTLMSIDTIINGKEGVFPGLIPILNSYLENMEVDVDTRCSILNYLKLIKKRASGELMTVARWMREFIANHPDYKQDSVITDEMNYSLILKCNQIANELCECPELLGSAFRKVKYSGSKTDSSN
T1 sequence (P48507 1-274 partner): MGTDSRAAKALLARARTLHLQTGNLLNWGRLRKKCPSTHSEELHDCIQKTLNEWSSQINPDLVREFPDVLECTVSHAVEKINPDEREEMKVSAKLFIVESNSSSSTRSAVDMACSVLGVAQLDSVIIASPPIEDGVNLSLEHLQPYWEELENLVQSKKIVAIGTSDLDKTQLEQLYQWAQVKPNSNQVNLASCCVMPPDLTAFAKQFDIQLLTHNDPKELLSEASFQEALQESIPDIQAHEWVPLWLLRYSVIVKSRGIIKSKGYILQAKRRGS

S. agalactiae γ-GCS-GS = target: T2, S. agalactiae γ-GCS-GS (Streptococcus agalactiae serotype V, UniProt Q8DXM9); test: GS activity assay based on ADP formation, S. agalactiae γ-GCS-GS; details: GS activity
T2 sequence (Q8DXM9 1-750): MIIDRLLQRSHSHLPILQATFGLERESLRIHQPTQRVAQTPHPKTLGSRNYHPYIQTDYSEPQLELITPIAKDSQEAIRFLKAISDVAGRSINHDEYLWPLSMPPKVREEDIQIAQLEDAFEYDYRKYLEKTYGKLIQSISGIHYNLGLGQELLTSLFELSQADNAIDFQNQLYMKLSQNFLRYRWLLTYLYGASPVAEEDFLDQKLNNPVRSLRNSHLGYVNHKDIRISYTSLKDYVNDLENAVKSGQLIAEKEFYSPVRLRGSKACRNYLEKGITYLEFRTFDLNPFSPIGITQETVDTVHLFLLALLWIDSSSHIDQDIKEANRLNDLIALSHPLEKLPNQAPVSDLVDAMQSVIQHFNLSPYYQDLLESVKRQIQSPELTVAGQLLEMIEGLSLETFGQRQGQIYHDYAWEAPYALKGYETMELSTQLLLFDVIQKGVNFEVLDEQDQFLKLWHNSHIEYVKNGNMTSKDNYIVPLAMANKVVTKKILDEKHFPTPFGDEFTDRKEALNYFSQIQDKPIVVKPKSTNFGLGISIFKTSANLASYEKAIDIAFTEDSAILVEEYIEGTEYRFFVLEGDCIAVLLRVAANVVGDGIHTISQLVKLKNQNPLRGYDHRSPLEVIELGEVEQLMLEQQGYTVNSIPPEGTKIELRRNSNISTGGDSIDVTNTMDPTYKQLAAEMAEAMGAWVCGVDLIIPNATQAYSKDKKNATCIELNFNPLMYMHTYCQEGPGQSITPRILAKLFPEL
Procedure: Transformed cells were grown, induced, and harvested by centrifugation, and were then broken using a French pressure cell. […] The column was equilibrated with 50 mM Tris HCl buffer, pH 7.4, containing 5 mM L-glutamate, 5 mM MgCl2, and 5 mM β-mercaptoethanol, and the high-speed supernatant was loaded. After washing the column with equilibration buffer to remove proteins lacking a His-tag, the expressed His8-tagged protein was eluted using the same buffer supplemented with 200 mM imidazole. Amount of γ-GCS activity was determined as described in Example 2. […] It was observed that the purified enzyme catalyzed both the γ-GCS and the GS reactions. Since the GS-specific activity was higher than the specific activity for any known GS enzyme, it was apparent that the expressed 85 kDa S. agalactiae protein (rather than a trace impurity), accounted for the observed GS activity. Using the pREP4 auxiliary plasmid instead of the pRARE plasmid gave somewhat lower yields (325 mg total protein vs. 442 mg protein using pRARE) but the specific activities of the γ-GCS activity (870 units/mg) and GS activities (1143 units/mg) were similar.
Results for E. coli GS are from H. Gushima et al. J. Appl. Biochem. 5, 210-218 (1983). Results for rat GS are from J. L. Luo et al. Biochem. Biophys. Res. Commun. 275, 577-581 (2000). Results for human GS are from R. Njalsson et al. Biochem. Biophys. Res. Commun. 289, 80-84 (2001) and R. Njalsson et al. Biochem. J. 349, 275-279 (2000).

E. coli GS = E. coli GS (Escherichia coli, UniProt P04425); details: cited from earlier work
Sequence of E. coli GS (P04425 whole entry): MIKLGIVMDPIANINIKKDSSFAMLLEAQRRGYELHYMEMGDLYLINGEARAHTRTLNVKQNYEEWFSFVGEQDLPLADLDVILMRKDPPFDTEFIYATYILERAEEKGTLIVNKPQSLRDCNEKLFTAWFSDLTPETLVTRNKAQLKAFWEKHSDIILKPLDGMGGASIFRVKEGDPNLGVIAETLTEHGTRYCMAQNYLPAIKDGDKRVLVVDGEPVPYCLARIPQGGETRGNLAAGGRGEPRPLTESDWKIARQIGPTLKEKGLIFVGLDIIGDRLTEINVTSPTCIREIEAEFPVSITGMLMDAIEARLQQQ

Nc1ncnc2c1ncn2[C@@H]1O[C@H](COP(=O)(O)OP(=O)(O)OP(=O)(O)O)[C@@H](O)[C@H]1O [ATP]
Km (Human γ-GCS; substrate Km): 400 ± 40 µM | Vmax (Human γ-GCS; unit = 1 μmol product per hour): ~1500 units/mg | Vmax (S. agalactiae γ-GCS-GS; unit = 1 μmol product per hour): 1662 ± 77 units/mg | Km (S. agalactiae γ-GCS-GS; substrate Km): 420 ± 49 µM | Vmax (E. coli GS): 650 units/mg | Km (E. coli GS; substrate Km): 1800 µM
